Like-named read-outs stand apart in the source and are kept apart here.

Assay [1] has as its target T1, rat intestinal α-glucosidase (Rattus norvegicus, UniProt P23739).
T1 construct: rat intestinal α-glucosidase solution; from tissue; host or cells: rat intestine
Nature of the assay: α-Glucosidase inhibition assay. In kind it is biochemical. The procedure:
The effect of the isolated compounds on the activity of the α-glucosidase enzyme was evaluated by the method of Olaokun et al.. Firstly, a solution of 2.5 mg of compound in 1 mL of 50% dimethyl sulfoxide was made. A compound solution (100 μL) and sucrose (200 μL of a 56 mM solution) in 0.1 M PO4 buffer (pH 7) were incubated at 37 °C for 5 min. Then 200 μL of rat intestinal α-glucosidase solution was added with vigorous shaking before incubation for 20 min. Thereafter, 750 μL of 2 M Tris-HCl buffer (pH 6.9) was added to the mixture. […] The quantity of glucose released was estimated using the glucose oxidase method, with absorbance recorded at 540 nm. […] (1) %Inhibition=100×∆AControl−∆ASample/∆AControl∆AControl=ATest−ABlank∆ASample=ATest−ABlank

A further assay deals with H-4-11-E rat liver cells. Nature of the assay: Glucose utilization in H-4-11-E liver cells. The assay is classed as cell-based. Conditions: 250 µg/mL, 3 h, percentage of untreated control cells ± SEM. The procedure: (§1) The potential of compounds to stimulate cells to utilize glucose was estimated using the method adopted by Olaokun et al.. […] The C2C12 cells were incubated for 4 days, while the H-4-11-E cells were incubated for 2 days at 37 °C in a 5% CO2 incubator. Thereafter, the cells were examined and utilized for the glucose uptake assay. […] The treated cells were incubated for 1 h (C2C12) and 3 h (H-4-11-E). The positive control was insulin (Sigma) (1 μM) for C2C12 cells and metformin (Sigma) (1 µM) for H-4-11-E cells. Thereafter, the amount of glucose in the medium was evaluated using the glucose oxidase method, with absorbance recorded at 540 nm. The percentage of glucose utilized was calculated as the percentage change in absorbance in comparison to the untreated cells using Equation (2). (2) %Glucose utilized=100×∆AControl (untreated cells)−∆ASample (treated cells)/∆AControl (untreated cells)

The next assay concerns C2C12 muscle cells. The assay can be described thus: Glucose utilization in C2C12 muscle cells. The assay is classed as cell-based. Conditions: 250 µg/mL, 1 h, percentage of untreated control cells ± SEM. The procedure: as §1
The mark [2] stands for this setting: rat intestinal α-glucosidase, sucrose substrate, mean ± SEM, read-out: IC50, α-glucosidase inhibitory activity (converted).

T1 sequence (P23739 whole entry): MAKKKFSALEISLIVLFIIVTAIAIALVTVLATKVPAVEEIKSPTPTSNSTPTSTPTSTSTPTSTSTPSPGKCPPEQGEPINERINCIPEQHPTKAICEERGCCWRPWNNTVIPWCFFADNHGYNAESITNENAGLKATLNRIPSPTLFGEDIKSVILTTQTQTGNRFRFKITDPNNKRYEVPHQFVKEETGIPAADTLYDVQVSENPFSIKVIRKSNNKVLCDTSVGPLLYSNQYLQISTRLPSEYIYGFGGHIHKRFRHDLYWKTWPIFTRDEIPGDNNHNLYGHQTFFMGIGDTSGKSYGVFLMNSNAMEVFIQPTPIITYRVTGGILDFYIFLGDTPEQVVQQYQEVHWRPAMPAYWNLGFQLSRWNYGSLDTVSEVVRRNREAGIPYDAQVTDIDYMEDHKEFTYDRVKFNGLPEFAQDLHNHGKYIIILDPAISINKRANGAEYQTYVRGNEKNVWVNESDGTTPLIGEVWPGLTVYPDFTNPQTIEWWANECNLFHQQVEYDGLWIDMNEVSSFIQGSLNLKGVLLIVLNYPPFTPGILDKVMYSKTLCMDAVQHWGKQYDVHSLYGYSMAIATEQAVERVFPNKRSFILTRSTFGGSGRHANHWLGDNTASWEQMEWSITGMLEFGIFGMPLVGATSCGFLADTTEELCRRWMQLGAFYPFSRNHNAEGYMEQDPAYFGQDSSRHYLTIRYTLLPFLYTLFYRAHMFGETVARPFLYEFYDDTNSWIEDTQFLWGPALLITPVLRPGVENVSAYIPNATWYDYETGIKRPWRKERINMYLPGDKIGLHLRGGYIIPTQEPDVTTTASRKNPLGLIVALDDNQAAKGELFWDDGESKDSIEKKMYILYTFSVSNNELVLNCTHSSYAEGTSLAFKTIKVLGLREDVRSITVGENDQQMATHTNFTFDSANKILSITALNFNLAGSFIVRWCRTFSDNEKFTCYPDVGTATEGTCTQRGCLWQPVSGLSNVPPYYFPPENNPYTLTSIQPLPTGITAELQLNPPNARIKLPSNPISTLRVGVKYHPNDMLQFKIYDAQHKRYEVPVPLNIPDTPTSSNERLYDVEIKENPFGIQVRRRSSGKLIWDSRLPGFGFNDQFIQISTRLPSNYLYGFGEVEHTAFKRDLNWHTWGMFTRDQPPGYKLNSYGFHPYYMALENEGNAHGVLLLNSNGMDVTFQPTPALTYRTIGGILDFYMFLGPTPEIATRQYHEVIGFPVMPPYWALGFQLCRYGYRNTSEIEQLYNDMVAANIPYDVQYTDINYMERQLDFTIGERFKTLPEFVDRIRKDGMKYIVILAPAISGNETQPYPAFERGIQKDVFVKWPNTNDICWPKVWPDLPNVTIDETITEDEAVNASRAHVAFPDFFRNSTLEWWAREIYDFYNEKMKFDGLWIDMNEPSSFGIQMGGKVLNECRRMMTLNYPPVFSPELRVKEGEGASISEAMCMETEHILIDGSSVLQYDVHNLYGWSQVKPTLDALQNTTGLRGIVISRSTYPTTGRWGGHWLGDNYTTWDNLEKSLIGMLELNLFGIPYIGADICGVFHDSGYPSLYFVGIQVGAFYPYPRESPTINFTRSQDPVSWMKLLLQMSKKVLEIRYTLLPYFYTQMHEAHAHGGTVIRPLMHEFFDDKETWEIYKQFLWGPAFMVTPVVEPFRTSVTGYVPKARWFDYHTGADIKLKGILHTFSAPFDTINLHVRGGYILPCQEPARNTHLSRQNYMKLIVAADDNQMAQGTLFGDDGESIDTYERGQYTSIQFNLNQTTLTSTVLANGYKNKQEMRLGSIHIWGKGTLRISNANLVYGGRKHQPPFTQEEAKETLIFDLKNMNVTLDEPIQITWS

Molecule `C=C(C)[C@@H]1CC[C@]2(C)CC[C@]3(C)[C@H](CC[C@@H]4[C@@]5(C)CC[C@H](O)C(C)(C)[C@@H]5CC[C@]43C)[C@@H]12` [Lupeol, lupeol] had an IC50 in assay [1] above 2340 µM. In the case of `CC[C@H](/C=C/[C@@H](C)[C@H]1CC[C@H]2[C@@H]3CC=C4C[C@@H](O)CC[C@]4(C)[C@H]3CC[C@]12C)C(C)C` [Stigmasterol, stigmasterol], the IC50 in assay [1] (setting [2]) was 280 µM.

`Oc1cc(O)c2c(c1)O[C@H](c1ccc(O)c(O)c1)[C@H](O)C2` [Epicatechin, epicatechin]: the IC50 in assay [1] (setting [2]) is 19.7 µM. The “Glucose utilization in H-4-11-E liver cells” value with H-4-11-E rat liver cells is reported as 32.4 ± 1.5%.

Consider `Oc1ccc(C2Oc3cc(O)cc(O)c3CC2O)cc1` (centres unmarked) [Epiafzelechin, epiafzelechin], for which the IC50 in assay [1] (setting [2]) is 27.9 µM. In the assay on C2C12 muscle cells, the “Glucose utilization in C2C12 muscle cells” value worked out at 33.35 ± 1.8%. For the same molecule, the “Glucose utilization in H-4-11-E liver cells” value in the assay on H-4-11-E rat liver cells was found to be 46.7 ± 1.2%.

For `CC(=O)OC1CCC2(C)C(CCC3(C)C2CC=C2C4C(C)C(C)CCC4(C)CCC23C)C1(C)C` (stereo not drawn) [α-Amyrin acetate, α-amyrin acetate], the IC50 in assay [1] (setting [2]) is 716 µM.

The values above are taken from publication PMC10708125, “Antidiabetic Activity, Molecular Docking, and ADMET Properties of Compounds Isolated from Bioactive Ethyl Acetate Fraction of Ficus lutea Leaf Extract” (Molecules, 2023).
